This note sets out measurements from patent US5059615A, “Antimycotically active cyclopropyl-substituted azolylmethylcarbinols” (Bayer Aktiengesellschaft, priority 1988, dated 1991).

One test relates to Torulopsis glabrata. The test is described as follows: Antimycotic in vitro activity, serial dilution test (MIC). The format is cell-based. As to conditions: Nakaseomyces glabratus, meat extract-dextrose broth, 28-37° C., 24 to 96 hours, read-out: MIC values in μg/ml of nutrient medium. Here is the method: (§1) The in vitro tests were carried out in a serial dilution test using inocula of microorganisms of on average 5×10^4 to 10^5 microorganisms/ml of substrate. The nutrient medium used was b) for yeasts meat extract-dextrose broth. The incubation temperature was 28° C. to 37° C., and the incubation time was 24 to 96 hours with yeasts and 96 hours with dermatophytes and Hyphomycetes.

The subject of another test is Candida albicans. The description is as above. The format is cell-based. The settings on record: for MIC: Candida albicans, meat extract-dextrose broth, 28-37° C., 24 to 96 hours, read-out: MIC values in μg/ml of nutrient medium; for activity compared with the known compounds (A) and (B): serial dilution test, in particular against Candida albicans. Here is the method:
as §1

Test [1] has as its system Trichophyton mentagrophytes. The test is described as above. The test is classed as cell-based. The settings on record: Trichophyton mentagr., Sabouraud's test medium, 28-37° C., 96 hours, read-out: MIC values in μg/ml of nutrient medium. Here is the method: (§2) The in vitro tests were carried out in a serial dilution test using inocula of microorganisms of on average 5×10^4 to 10^5 microorganisms/ml of substrate. The nutrient medium used was a) for dermatophytes and Hyphomycetes Sabouraud's test medium The incubation temperature was 28° C. to 37° C., and the incubation time was 24 to 96 hours with yeasts and 96 hours with dermatophytes and Hyphomycetes.

In another test the test system is Aspergillus fumigatus. The test is described as above. The test is classed as cell-based. As to conditions: Sabouraud's test medium, 28-37° C., 96 hours, read-out: MIC values in μg/ml of nutrient medium. Here is the method:
as §2

Another test has as its system Candida cells. Description: Antimycotic in vivo activity (oral) in mouse candidosis. Further details: species or system Mice of the SPF-CF type. As to conditions: for Action / surviving on the 6th day p.i.: 10-100 mg/kg one hour before and seven hours after infection; for Action: survival on the 6th day p.i.; for surviving on the 6th day p.i.: untreated about 5%; for action (in words) / action compared with the known compounds (C) and (D): mouse candidosis. Here is the method:
Mice of the SPF-CF type were infected intravenously with 1-2×10^6exponentially growing Candida cells which were suspended in physiological saline solution. One hour before and seven hours after the infection, the animals were treated orally in each case with 10-100 mg/kg of body weight of the preparation. Untreated animals died 3 to 6 days post infection. The survival rate on the 6th day post infection in untreated control animals was about 5%.

In test [2] the test system is Trichophyton mentagrophytes. The test is described as follows: Antimycotic in vivo activity (local) in the experimental guinea-pig trichophytosis model. Also on record: species or system guinea-pigs of the Pirbright white strain. The settings on record: 2.5% strength solution. Here is the method:
White guinea-pigs of the Pirbright white strain were infected on the shaven, non-scarified back using a microconidia and macroconidia suspension of Trichophyton mentagrophytes. The infected animals were treated locally from. The 3rd day 1x daily p.i. using a 2.5% strength solution of the preparation according to the invention (in dimethyl sulphoxide:glycerol=1:4). In untreated animals, the typical picture of dermatophytosis with reddening, scaling and hair loss up to total integumental defect of the infection site developed in the course of 12 days p.i.

For a further test, the system named is Microsporum canis. Description: Antimycotic in vitro activity, serial dilution test (MIC). The format is cell-based. As to conditions: Sabouraud's test medium, 28-37° C., 96 hours, read-out: MIC values in μg/ml of nutrient medium. Here is the method:
as §2

Converted amounts (≈) assume the structure as drawn. A value given as a limit tells only on which side of the number the result lay.

For the compound `OC(Cn1cncn1)(Cn1cncn1)c1cccc(Cl)c1` [A, reference compound], the MIC in the test on Torulopsis glabrata was more than 64 µg/mL; in the test on Candida albicans, more than 64 µg/mL; in test [1], 32 µg/mL (≈ 105 µM); with Aspergillus fumigatus it was more than 64 µg/mL.
Turning to `OC(Cn1cncn1)(Cn1cncn1)c1ccccc1` [B, reference compound], the MIC in the test with Torulopsis glabrata was more than 64 µg/mL; with Candida albicans, 64 µg/mL (≈ 237 µM); in test [1], 64 µg/mL (≈ 237 µM); in the test with Aspergillus fumigatus, more than 64 µg/mL.
`N#CC1(C(O)(Cn2cncn2)c2ccc(F)cc2)CC1` (centres unmarked) [I-2, 1-(1-Cyanocyclopropyl)-1-(4-fluorophenyl)-2-(1,2,4-triazol-1-yl)ethanol]: in the test on Candida cells, the Action entry was “+++++ (very good action = 90% surviving on the 6th day p.i.)”; the “surviving on the 6th day p.i.” value is listed as more than 80%; the “action (in words)” value is given as “good to very good action”; the “action compared with the known compounds (C) and (D)” value is “better than the compounds (C) and (D)”. The “action (in words)” value in test [2] is reported as “good action”.
Consider `N#CC1(C(O)(Cn2cncn2)c2ccc(Cl)cc2)CC1` (centres unmarked) [I-3, 1-(1-Cyanocyclopropyl)-1-(4-chlorophenyl)-2-(1,2,4-triazol-1-yl)ethanol], for which the MIC in the test with Torulopsis glabrata turned out to be 8 µg/mL (≈ 27.7 µM); in the test on Candida albicans, 2 µg/mL (≈ 6.93 µM); in test [1], 2 µg/mL (≈ 6.93 µM); with Aspergillus fumigatus, 4 µg/mL (≈ 13.9 µM); in the test on Microsporum canis it was 4 µg/mL (≈ 13.9 µM). The “activity compared with the known compounds (A) and (B)” value in the test with Candida albicans is given as “better activity”. Moreover, the Action result with Candida cells is listed as “+++++ (very good action = 90% surviving on the 6th day p.i.)”. Also, the “surviving on the 6th day p.i.” value with Candida cells was more than 80%. Further, the results for the “action (in words)” value (in the test on Candida cells; in test [2]) were “good to very good action” and “good action”, respectively. Also, the “action compared with the known compounds (C) and (D)” value in the test on Candida cells was “better than the compounds (C) and (D)”.
On to `N#CC1(C(O)(Cn2cncn2)c2ccc(F)cc2F)CC1` (centres unmarked) [I-4, 1-(1-Cyanocyclopropyl)-1-(2,4-difluorophenyl)-2-(1,2,4-triazol-1-yl)ethanol], for which, in the test with Candida cells, the Action entry was “+++++ (very good action = 90% surviving on the 6th day p.i.)”; the “surviving on the 6th day p.i.” value was more than 80%; the “action (in words)” value is reported as “good to very good action”; the “action compared with the known compounds (C) and (D)” value was “better than the compounds (C) and (D)”.
With `N#CC1(C(O)(Cn2ccnc2)c2ccc(F)cc2)CC1` (centres unmarked) [I-5, 1-(1-cyanocyclopropyl)-1-(4-fluorophenyl)-2-(imidazol-1-yl)ethanol], the MIC is 8 µg/mL (≈ 29.5 µM) with Torulopsis glabrata; 8 µg/mL (≈ 29.5 µM) with Candida albicans; less than 1 µg/mL in test [1]; 4 µg/mL (≈ 14.7 µM) in the test with Aspergillus fumigatus; 4 µg/mL (≈ 14.7 µM) in the test on Microsporum canis. Besides, in the test with Candida albicans, the “activity compared with the known compounds (A) and (B)” value is “better activity”.
`NC(=O)C1(C(O)(Cn2cncn2)c2ccc(F)cc2)CC1` (centres unmarked) [I-7, 1-(1-Carboxamidocyclopropyl)-1-(4-fluorophenyl)-2-(1,2,4-triazol-1-yl)ethanol]: in the test on Candida cells, the Action entry is given as “+++++ (very good action = 90% surviving on the 6th day p.i.)”; the “surviving on the 6th day p.i.” value is given as more than 80%; the “action (in words)” value is reported as “good to very good action”; the “action compared with the known compounds (C) and (D)” value was “better than the compounds (C) and (D)”.
On to `N#CC1(C(O)(Cn2cncn2)c2ccc(OC(F)(F)F)cc2)CC1` (centres unmarked) [I-9], for which, in the test with Candida cells, the Action entry is “+++++ (very good action = 90% surviving on the 6th day p.i.)”; the “surviving on the 6th day p.i.” value was more than 80%; the “action (in words)” value is given as “good to very good action”; the “action compared with the known compounds (C) and (D)” value is “better than the compounds (C) and (D)”.
Consider `N#CC1(C(O)(Cn2cncn2)c2ccc(C(F)(F)F)cc2Cl)CC1` (centres unmarked) [I-11], for which, in the test on Candida cells, the Action result is listed as “+++++ (very good action = 90% surviving on the 6th day p.i.)”; the “surviving on the 6th day p.i.” value is recorded as more than 80%; the “action (in words)” value was “good to very good action”; the “action compared with the known compounds (C) and (D)” value is “better than the compounds (C) and (D)”.
With `N#CC1(C(O)(Cn2cncn2)c2ccccc2Cl)CC1` (centres unmarked) [I-13], in the test on Candida cells, the Action entry is “++++ (good action = 80% surviving on the 6th day p.i.)”; the “surviving on the 6th day p.i.” value is more than 80%; the “action (in words)” value is reported as “good to very good action”; the “action compared with the known compounds (C) and (D)” value was “better than the compounds (C) and (D)”.
As for `N#CC1(C(O)(Cn2cncn2)c2ccc(Cl)cc2F)CC1` (centres unmarked) [I-14], in the test with Torulopsis glabrata, the MIC turned out to be 16 µg/mL (≈ 52.2 µM). In addition, in the test with Candida albicans, the MIC is 2 µg/mL (≈ 6.52 µM); the “activity compared with the known compounds (A) and (B)” value is “better activity”. In the test on Candida cells, the Action result is listed as “+++++ (very good action = 90% surviving on the 6th day p.i.)”; the “surviving on the 6th day p.i.” value is listed as more than 80%; the “action (in words)” value is “good to very good action”; the “action compared with the known compounds (C) and (D)” value is “better than the compounds (C) and (D)”. For the same compound, in test [1], the MIC was less than 1 µg/mL. Further, in the test with Aspergillus fumigatus, the MIC was determined as 4 µg/mL (≈ 13 µM). Moreover, in the test on Microsporum canis, the MIC stood at 4 µg/mL (≈ 13 µM).
Turning to `N#CC1(C(O)(Cn2cncn2)c2c(F)cccc2F)CC1` (centres unmarked) [I-15], in the test with Candida cells, the Action result was “+++++ (very good action = 90% surviving on the 6th day p.i.)”; the “surviving on the 6th day p.i.” value is given as more than 80%; the “action (in words)” value was “good to very good action”; the “action compared with the known compounds (C) and (D)” value is “better than the compounds (C) and (D)”.
On to `N#CC1(C(O)(Cn2cncn2)c2ccc(Cl)cc2Cl)CC1` (centres unmarked) [I-16], for which the MIC is 32 µg/mL (≈ 99 µM) in the test with Torulopsis glabrata; 16 µg/mL (≈ 49.5 µM) with Candida albicans; less than 1 µg/mL in test [1]; 2 µg/mL (≈ 6.19 µM) in the test on Aspergillus fumigatus; less than 1 µg/mL in the test on Microsporum canis. Also, the “activity compared with the known compounds (A) and (B)” value in the test on Candida albicans was “better activity”. Also, the Action result in the test on Candida cells is “+++++ (very good action = 90% surviving on the 6th day p.i.)”. The “surviving on the 6th day p.i.” value in the test with Candida cells was more than 80%. Besides, in the test with Candida cells, the “action (in words)” value is reported as “good to very good action”. In addition, in the test with Candida cells, the “action compared with the known compounds (C) and (D)” value was “better than the compounds (C) and (D)”.
